Measured values taken from ChEMBL document CHEMBL1862790, “Optimisation of fenarimol series for the treatment of Chagas disease”.

How the values were obtained:
Trypanosoma cruzi [1] = assay: microbe, parasite or virus in culture; assay type: functional, Tulahuen LacZ, Clone C4; conditions: Trypanosoma cruzi, Tulahuen LacZ, Clone C4
[2] = DNDI: Cytotoxicity against L-6 rat myoblasts from skeletal muscle cells; conditions: L6 rat skeletal muscle myoblast cells, IC50
Trypanosoma cruzi [3] = assay: microbe, parasite or virus in culture; assay type: functional, organism-based, Tulahuen LacZ, Clone C4; conditions: Trypanosoma cruzi, Tulahuen LacZ, Clone C4

Compound | IC90 (Trypanosoma cruzi [1]) | IC50 [2] | IC50 (Trypanosoma cruzi [3])
Cc1cc(C(=O)NC2CCN(C(c3ccc(C#N)cc3)c3cccnc3)CC2)no1 (centres undefined) | 103 nM | > 100000 nM | 50 nM
Cc1cc(C(=O)N2CCC(NC(c3ccc(C(F)(F)F)cc3)c3cccnc3)CC2)n(C)n1 (centres undefined) | 773 nM | > 100000 nM | 264 nM
N#Cc1ccc(C(c2cccnc2)N2CCC(NC(=O)c3cscn3)CC2)cc1 (centres undefined) | 298 nM | > 100000 nM | 174 nM
CC(C)(C)NC(=O)N1CCC(NC(c2ccc(C(F)(F)F)cc2)c2cncs2)CC1 (centres undefined) | 128 nM | > 100000 nM | 68 nM
Cc1ncsc1C(=O)NC1CCN(C(c2ccc(C#N)cc2)c2cccnc2)CC1 (centres undefined) | 202 nM | > 100000 nM | 71 nM
O=C(C1CCC1)N1CCN(C(c2cncnc2)c2ccc(Cl)cc2F)CC1 (centres undefined) | 868 nM | > 100000 nM | 412 nM
Cc1cnc(N2CCC(NC(c3ccc(C(F)(F)F)cc3)c3cccnc3)CC2)s1 (centres undefined) | 101 nM | 59900 nM | 29 nM
Cn1ccnc1C(=O)N1CCC(NC(c2ccc(C(F)(F)F)cc2)c2cccnc2)CC1 (centres undefined) | 208 nM | > 100000 nM | 81.5 nM
OC(c1ccc(C(F)(F)F)cc1)(c1cncc(Cl)c1)c1ccc(Cl)cc1F (centres undefined) | > 1000 nM | 78600 nM | > 1000 nM
CCn1nc(C)cc1C(=O)N1CCC(NC(c2ccc(C(F)(F)F)cc2)c2cccnc2)CC1 (centres undefined) | 206 nM | > 100000 nM | 70.5 nM
CCn1nc(C)cc1C(=O)NC1CCN(C(c2ccc(C#N)cc2)c2cccnc2)CC1 (centres undefined) | 934 nM | > 100000 nM | 504 nM
Cc1cc(C(=O)NC2CCN(C(c3ccc(C#N)cc3)c3cccnc3)CC2)on1 (centres undefined) | 688 nM | > 100000 nM | 196 nM
Cc1ncoc1C(=O)NC1CCN(C(c2ccc(C#N)cc2)c2cccnc2)CC1 (centres undefined) | 320 nM | > 100000 nM | 183 nM
Cc1ncsc1C(=O)N1CCN(C(c2cccnc2)c2ccc(C(F)(F)F)cc2F)CC1 (centres undefined) | 131 nM | 96900 nM | 58.5 nM
O=C(c1ccccc1)N1CC(CNC(c2ccc(C(F)(F)F)cc2)c2cccnc2)C1 (centres undefined) | 142 nM | > 100000 nM | 67 nM
O=C(c1cc[nH]n1)N1CCC(NC(c2ccc(C(F)(F)F)cc2)c2cccnc2)CC1 (centres undefined) | 570 nM | > 100000 nM | 294 nM
N#Cc1ccc(C(c2cccnc2)N2CCC(NC(=O)c3c(F)cccc3C(F)(F)F)CC2)cc1 (centres undefined) | 10.4 nM | > 100000 nM | 4.48 nM
Cc1nc(C(=O)NC2CCN(C(c3ccc(C#N)cc3)c3cccnc3)CC2)co1 (centres undefined) | 272 nM | > 100000 nM | 114 nM
Cc1nc(C(=O)N2CCC(NC(c3ccc(C(F)(F)F)cc3)c3cccnc3)CC2)co1 (centres undefined) | 968 nM | > 100000 nM | 590 nM
Cc1nnc(N2CCC(NC(c3ccc(C(F)(F)F)cc3)c3cccnc3)CC2)s1 (centres undefined) | 168 nM | > 100000 nM | 69.5 nM
Cc1nc(C)c(C(=O)NC2CCN(C(c3ccc(C#N)cc3)c3cccnc3)CC2)s1 (centres undefined) | 118 nM | > 100000 nM | 59 nM
N#Cc1ccc(C(c2cccnc2)N2CCC(NC(=O)c3nccs3)CC2)cc1 (centres undefined) | 358 nM | > 100000 nM | 138 nM
CC(C)(C)OC(=O)N1CC(CNC(c2ccc(C(F)(F)F)cc2)c2cccnc2)C1 (centres undefined) | 332 nM | > 100000 nM | 122 nM
Fc1cc(Cl)ccc1C(NC1CCN(c2c(F)cccc2F)CC1)c1cccnc1 (centres undefined) | 33.5 nM | 56300 nM | 12.5 nM
Cc1cc(C(=O)NC2CCN(C(c3ccc(C#N)cc3)c3cccnc3)CC2)[nH]n1 (centres undefined) | 670 nM | > 100000 nM | 236 nM
Cn1cc(C(=O)N2CCC(NC(c3ccc(C(F)(F)F)cc3)c3cccnc3)CC2)c(C(F)(F)F)n1 (centres undefined) | 280 nM | 77100 nM | 99.5 nM
Cc1oncc1C(=O)N1CCC(NC(c2ccc(C(F)(F)F)cc2)c2cccnc2)CC1 (centres undefined) | 470 nM | > 100000 nM | 69.5 nM

Compound | IC90 (Trypanosoma cruzi [1]) | IC50 [2] | IC50 (Trypanosoma cruzi [3])
Cc1noc(N2CCN(C(c3cncnc3)c3ccc(C(F)(F)F)cc3F)CC2)n1 (centres undefined) | 282 nM | > 100000 nM | 126 nM
Cn1cc(C(=O)NC2CCN(C(c3ccc(C#N)cc3)c3cccnc3)CC2)c(C(F)(F)F)n1 (centres undefined) | 77.5 nM | > 100000 nM | 28.5 nM
Nc1nc(N2CCN(C(c3cccnc3)c3ccc(C(F)(F)F)cc3F)CC2)no1 (centres undefined) | 92 nM | 57800 nM | 36.5 nM
Cc1ncsc1C(=O)N1CCN(C(c2ccc(C#N)cc2)c2cccnc2)CC1 (centres undefined) | > 1000 nM | > 100000 nM | 513 nM
FC(F)(F)c1ccc(C(NC2CCN(c3cncs3)CC2)c2cccnc2)cc1 (centres undefined) | 118 nM | 59900 nM | 25 nM
N#Cc1ccc(C(c2cccnc2)N2CCC(NC(=O)c3ccno3)CC2)cc1 (centres undefined) | 671 nM | > 100000 nM | 220 nM
CC(C)(C)OC(=O)N1CCC(NC(c2ccc(C(F)(F)F)cc2)c2cncs2)CC1 (centres undefined) | 19.5 nM | 61300 nM | 7 nM
Cc1cc(C(=O)N2CCC(NC(c3ccc(C(F)(F)F)cc3)c3cccnc3)CC2)on1 (centres undefined) | 779 nM | > 100000 nM | 363 nM
O=C(c1ccccc1)N1CCC(NC(c2ccc(C(F)(F)F)cc2)c2cncs2)CC1 (centres undefined) | 106 nM | 76100 nM | 33 nM
Cc1nocc1C(=O)N1CCC(NC(c2ccc(C(F)(F)F)cc2)c2cccnc2)CC1 (centres undefined) | 584 nM | > 100000 nM | 164 nM
O=C(c1ccno1)N1CCC(NC(c2ccc(C(F)(F)F)cc2)c2cccnc2)CC1 (centres undefined) | 270 nM | > 100000 nM | 90 nM
Cn1cc(C(=O)NC2CCN(C(c3ccc(C#N)cc3)c3cccnc3)CC2)cn1 (centres undefined) | 300 nM | 54300 nM | 169 nM
OC(c1ccc(C(F)(F)F)cc1)(c1cncc(F)c1)c1ccc(Cl)cc1F (centres undefined) | 422 nM | 51400 nM | 194 nM
CC(C)(C)OC(=O)N1CCN(C(c2cccnc2)c2ccc(C#N)cc2F)CC1 (centres undefined) | 940 nM | > 100000 nM | 532 nM
O=C(c1nccs1)N1CCC(NC(c2ccc(C(F)(F)F)cc2)c2cccnc2)CC1 (centres undefined) | 455 nM | > 100000 nM | 57 nM
COc1cncc(C(O)(c2ccc(C(F)(F)F)cc2)c2ccc(Cl)cc2F)c1 (centres undefined) | 318 nM | 67400 nM | 122 nM
Cn1cc(C(=O)N2CCC(NC(c3ccc(C(F)(F)F)cc3)c3cccnc3)CC2)cn1 (centres undefined) | 655 nM | > 100000 nM | 384 nM
Cc1nc(C(=O)N2CCC(NC(c3ccc(C(F)(F)F)cc3)c3cccnc3)CC2)cs1 (centres undefined) | 808 nM | > 100000 nM | 326 nM
CC(C)(C)C(=O)N1CCN(C(c2ccc(C#N)cc2)c2cccnc2)CC1 (centres undefined) | 696 nM | > 100000 nM | 254 nM
Cc1nocc1C(=O)NC1CCN(C(c2ccc(C#N)cc2)c2cccnc2)CC1 (centres undefined) | 101 nM | > 100000 nM | 55 nM
N#Cc1ccc(C(c2cccnc2)N2CCN(c3nccs3)CC2)cc1 (centres undefined) | 159 nM | > 100000 nM | 49.5 nM
Cc1cc(C(=O)NC2CCN(C(c3ccc(C#N)cc3)c3cccnc3)CC2)n(C(C)(C)C)n1 (centres undefined) | 220 nM | > 100000 nM | 62 nM
Cn1ccnc1C(=O)NC1CCN(C(c2ccc(C#N)cc2)c2cccnc2)CC1 (centres undefined) | 482 nM | > 100000 nM | 239 nM
Cc1nc(C)c(C(=O)N2CCC(NC(c3ccc(C(F)(F)F)cc3)c3cccnc3)CC2)s1 (centres undefined) | 658 nM | > 100000 nM | 216 nM
Cc1noc(C)c1C(=O)NC1CCN(C(c2ccc(C#N)cc2)c2cccnc2)CC1 (centres undefined) | 104 nM | > 100000 nM | 51.5 nM
CC(C)(C)C(=O)N1CCC(NC(c2ccc(C(F)(F)F)cc2)c2cncs2)CC1 (centres undefined) | 94 nM | > 100000 nM | 34 nM
